Experimental data reported in the supplement of paper PMC7695840.
Where a name gives a salt, the structure may show the parent alone.

Columns and labels:
[1] = test system: Staphylococcus aureus MW2 (mecA+); test: IC50 (growth, competition assay); conditions: cefoxitin: subinhibitory
Procedure, shortened: (§1)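 Signals from DsRed (540/590) and GFP (485/520) were scaled on every plate between single-strain control medians, with No Treatment then set to 0.5. The cells were a 1:1 mix of pre-induced fluorescent S. aureus MW2 strains with and without the resistance gene, grown unshaken for 20 h at 37 °C and 90% humidity in LB in 1536-well plates under a subinhibitory drug dose set each day. Each strain's IC50 was defined as the dose halving the No Treatment signal, or the maximal signal.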

[2] = test system: Staphylococcus aureus MW2 delta-mecA (mecA-); test: IC50 (growth, competition assay); conditions: cefoxitin: subinhibitory
Procedure, shortened: as §1

| SMILES | IC50 ([1]; fluorescent label: DsRed) | IC50 ([1]; fluorescent label: GFP) | IC50 ([2]; fluorescent label: DsRed) | IC50 ([2]; fluorescent label: GFP) |
| --- | --- | --- | --- | --- |
| C=CC1=C(C(=O)O)N2C(=O)[C@@H](NC(=O)/C(=N\O)c3csc(N)n3)[C@H]2SC1 [OMNICEF] | < 9.85 µM | < 9.85 µM | < 9.85 µM | < 9.85 µM |
| CN1CCN(CCCN2c3ccccc3Sc3ccc(C(F)(F)F)cc32)CC1 [Trifluoperazine dihydrochloride] | 51.1 µM | 52.4 µM | 15.7 µM | 16.5 µM |
| COc1ccc2c(c1)CCC1C2CCC2(C)C(NCCCCCCN3C(=O)C=CC3=O)CCC12 (stereo unspecified) | > 150 µM | > 150 µM | 46.3 µM | 44.2 µM |
| CC1(C)S[C@@H]2[C@H](NC(=O)[C@H](N)c3ccc(O)cc3)C(=O)N2[C@H]1C(=O)O [AMOXIL] | 135 µM | 106 µM | < 9.85 µM | < 9.85 µM |
| N#C[C@H](O[C@@H]1O[C@H](CO[C@@H]2O[C@H](CO)[C@@H](O)[C@H](O)[C@H]2O)[C@@H](O)[C@H](O)[C@H]1O)c1ccccc1 [Amygdalin] | 23.8 µM | 28.9 µM | < 9.85 µM | < 9.85 µM |
| OC(CNCC(O)C1CCc2cc(F)ccc2O1)C1CCc2cc(F)ccc2O1 (stereo unspecified) [Nebivolol] | 108 µM | 111 µM | 35 µM | 19.6 µM |
| Cc1cc(CC(C)CC(C)(C)C)n(O)c(=O)c1 (stereo unspecified) [OCTOPIROX] | 120 µM | 106 µM | 89.5 µM | 70 µM |
| CC1(C)S[C@@H]2[C@H](NC(=O)[C@H](N)c3ccccc3)C(=O)N2[C@H]1C(=O)O [Ampicillin sodium] | < 9.85 µM | 15.1 µM | < 9.85 µM | < 9.85 µM |
| Oc1c(Cl)cc(Cl)c2cccnc12 [CAPITROL] | 17.9 µM | 30 µM | < 9.85 µM | < 9.85 µM |
| COc1cc([C@@H]2c3cc4c(cc3[C@@H](O[C@@H]3O[C@@H]5CO[C@@H](C)O[C@H]5[C@H](O)[C@H]3O)[C@H]3COC(=O)[C@H]23)OCO4)cc(OC)c1O [Etoposide] | 14.9 µM | 14.9 µM | < 9.85 µM | < 9.85 µM |
| COc1cc(Nc2ncc3c(n2)-c2ccc(Cl)cc2C(c2c(F)cccc2OC)=NC3)ccc1C(=O)O [MLN8237 (Alisertib)] | 12.4 µM | 27.5 µM | < 9.85 µM | < 9.85 µM |
| CCCCCCNC(=O)n1cc(F)c(=O)[nH]c1=O [Carmofur] | < 9.85 µM | < 9.85 µM | < 9.85 µM | < 9.85 µM |
| COc1cc2ncnc(Nc3ccc(Oc4ccccc4)cc3)c2cc1OC [Src I1] | 29 µM | 30.7 µM | 30.6 µM | 25.3 µM |
| COc1ccc(CCN(C)CCCOc2ccc(S(=O)(=O)c3c(C(C)C)n(C)c4ccccc34)cc2)cc1OC | 14.8 µM | 14.9 µM | < 9.85 µM | < 9.85 µM |
| CCn1cc(C(=O)O)c(=O)c2cc3c(cc21)OCO3 [Oxolinic acid] | 18.3 µM | 16.1 µM | 15.1 µM | 14.6 µM |
| CN(CC(=O)N(Cc1ccc(C2CCCCC2)cc1)c1ccc(C(=O)O)cc1)S(=O)(=O)c1c(F)c(F)c(F)c(F)c1F [SH-4-54] | < 9.85 µM | 11.5 µM | < 9.85 µM | < 9.85 µM |
| NCc1ccccc1CC(=O)N[C@@H]1C(=O)N2C(C(=O)O)=C(CSc3nnnn3CC(=O)O)CS[C@H]12 [PRECEF] | 53.1 µM | 44.7 µM | < 9.85 µM | < 9.85 µM |
| CSc1ccc2c(c1)N(CCC1CCCCN1C)c1ccccc1S2 (stereo unspecified) [MELLARIL] | 66.9 µM | 87.4 µM | 18.9 µM | 13.9 µM |
| O=c1c(O)c(-c2ccc(O)c(O)c2)oc2cc(O)cc(O)c12 [Quercetin dihydrate] | 56.9 µM | 55.7 µM | 18.4 µM | 10.4 µM |
| Cc1cc(-n2c(=O)[nH]c(=O)n(C)c2=O)ccc1Oc1ccc(SC(F)(F)F)cc1 [BAYCOX] | 70.8 µM | 113 µM | 59.8 µM | 32 µM |
| O=C(O)Cc1cccc(OCCCN(Cc2cccc(C(F)(F)F)c2Cl)CC(c2ccccc2)c2ccccc2)c1 [GW3965 HCl] | < 9.85 µM | < 9.85 µM | < 9.85 µM | < 9.85 µM |
| C[C@H]1COc2c(N3CCN(C)CC3)c(F)cc3c(=O)c(C(=O)O)cn1c23 [Levofloxacin (Levaquin)] | < 0.498 µM | < 0.498 µM | < 0.498 µM | < 0.498 µM |
| Cc1ccc(C(=O)N(CCCN)[C@@H](c2oc3cc(Cl)ccc3c(=O)c2Cc2ccccc2)C(C)C)cc1 | 30.8 µM | 30.6 µM | 5.93 µM | 7.88 µM |
| CC(C)(C)c1cc(C(C)(C)C)c(NC(=O)c2c[nH]c3ccccc3c2=O)cc1O [Ivacaftor (VX-770)] | 9.86 µM | 14.8 µM | 1.27 µM | 1.6 µM |
| O=C(O)c1ccc2cc(-c3ccc(O)c(C45CC6CC(CC(C6)C4)C5)c3)ccc2c1 [CD 437] | < 9.85 µM | < 9.85 µM | < 9.85 µM | < 9.85 µM |
| COc1cc(NS(C)(=O)=O)ccc1Nc1c2ccccc2nc2ccccc12 [Amsacrine hydrochloride] | 106 µM | 97.2 µM | < 9.85 µM | < 9.85 µM |
| Cc1coc2c1C(=O)C(=O)c1c-2ccc2c(C)cccc12 [Tanshinone I] | 130 µM | > 150 µM | 76.7 µM | 64 µM |
| CN1CCN(c2cc3c(cc2F)c(=O)c(C(=O)O)cn3-c2ccc(F)cc2)CC1 [DICURAL] | < 9.85 µM | < 9.85 µM | < 9.85 µM | < 9.85 µM |
| CC1CC(OC(=O)C(O)c2ccccc2)CC(C)(C)C1 (stereo unspecified) [CYCLOSPASMOL] | 45.1 µM | 83.4 µM | 15.1 µM | 13.8 µM |
